According to PubChem BioAssay AID248 (DTP/NCI, 2004):
“And” between values parts separate entries of the source, which are not always exact repeats. Equal entries are not always repeated. Toxic doses and inconclusive results are not listed. Rule as the data show it: active = T/C of 150% or more; inactive = T/C below 125%.

System: L1210 leukemia ip in BDF1 mice, survival T/C
Assay: NCI In Vivo Anticancer Drug Screen. Data for tumor model L1210 Leukemia (intraperitoneal) in B6D2F1 (BDF1) mice
Details: endpoint: mean survival time, higher = longer survival
Outline: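 Each compound was tested against a transplantable tumor grown in mice. The endpoint was survival, with treated animals benchmarked against vehicle controls as a simple ratio.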

[1] = dose: 100.0 mg/kg/injection, schedule: Q01DX001 (ip), vehicle: carboxymethylcellulose (CMC)
[2] = dose: 200.0 mg/kg/injection, schedule: Q01DX001 (ip), vehicle: carboxymethylcellulose (CMC)
[3] = dose: 400.0 mg/kg/injection, schedule: Q01DX001 (ip), vehicle: carboxymethylcellulose (CMC)
[4] = dose: 100.0 mg/kg/injection, schedule: Q04DX003 (ip), vehicle: saline with Tween-80
[5] = dose: 200.0 mg/kg/injection, schedule: Q04DX003 (ip), vehicle: saline with Tween-80
[6] = dose: 100.0 mg/kg/injection, schedule: Q04DX003 (ip), vehicle: saline
[7] = dose: 200.0 mg/kg/injection, schedule: Q04DX003 (ip), vehicle: saline
[8] = dose: 400.0 mg/kg/injection, schedule: Q04DX003 (ip), vehicle: saline
[9] = dose: 100.0 mg/kg/injection, schedule: Q04DX003 (ip), vehicle: Klucel (hydroxypropylcellulose) (HPC)
[10] = dose: 200.0 mg/kg/injection, schedule: Q04DX003 (ip), vehicle: Klucel (hydroxypropylcellulose) (HPC)
[11] = dose: 400.0 mg/kg/injection, schedule: Q04DX003 (ip), vehicle: Klucel (hydroxypropylcellulose) (HPC)

Measured: T/C

COc1ccc(C(c2ccccc2)N(N=O)C(=O)c2ccccc2)cc1 (stereo unspecified)
inactive: dose: 38.0 mg/kg/injection, schedule: Q04DX002 (ip), vehicle: Klucel (hydroxypropylcellulose) (HPC) 94 % of control | dose: 75.0 mg/kg/injection, schedule: Q04DX002 (ip), vehicle: Klucel (hydroxypropylcellulose) (HPC) 94 % of control | dose: 150.0 mg/kg/injection, schedule: Q04DX002 (ip), vehicle: Klucel (hydroxypropylcellulose) (HPC) 94 % of control

NCC1COc2ccccc2O1 (stereo unspecified)
inactive: dose: 75.0 mg/kg/injection, schedule: Q01DX001 (ip), vehicle: carboxymethylcellulose (CMC) 98 % of control | dose: 150.0 mg/kg/injection, schedule: Q01DX001 (ip), vehicle: carboxymethylcellulose (CMC) 96 % of control | dose: 300.0 mg/kg/injection, schedule: Q01DX001 (ip), vehicle: carboxymethylcellulose (CMC) 96 % of control

CN(C)CCCNc1ccc(O)c2c1C(=O)c1ccccc1C2=O
inactive: dose: 50.0 mg/kg/injection, schedule: Q01DX009 (ip), vehicle: saline 100 % of control | dose: 100.0 mg/kg/injection, schedule: Q01DX009 (ip), vehicle: saline 95 % of control | dose: 200.0 mg/kg/injection, schedule: Q01DX009 (ip), vehicle: saline 106 % of control | dose: 400.0 mg/kg/injection, schedule: Q01DX009 (ip), vehicle: saline 105 % of control

C1CCC(C2CCC(N3CCCCC3)CC2)CC1 (stereo unspecified)
inactive: dose: 12.5 mg/kg/injection, schedule: Q01DX001 (ip), vehicle: saline 106 % of control | dose: 25.0 mg/kg/injection, schedule: Q01DX001 (ip), vehicle: saline 101 % of control | dose: 50.0 mg/kg/injection, schedule: Q01DX001 (ip), vehicle: saline 101 % of control

O/N=C1\c2ccccc2-c2ccc(Br)cc21
inactive: [1] 97 % of control | [2] 117 % of control | [3] 103 % of control

COC(=O)C(=C(c1ccccc1)c1ccccc1)c1ccccc1
inactive: [4] 90 % of control | [5] 90 % of control

CCc1ccccc1NC(=O)Nc1ccc(C(=O)O)c(O)c1
inactive: dose: 100.0 mg/kg/injection, schedule: Q01DX009 (ip), vehicle: Klucel (hydroxypropylcellulose) (HPC) 95 % of control | dose: 100.0 mg/kg/injection, schedule: Q04DX002 (ip), vehicle: Klucel (hydroxypropylcellulose) (HPC) 98 % of control | dose: 200.0 mg/kg/injection, schedule: Q01DX009 (ip), vehicle: Klucel (hydroxypropylcellulose) (HPC) 101 % of control | dose: 200.0 mg/kg/injection, schedule: Q04DX002 (ip), vehicle: Klucel (hydroxypropylcellulose) (HPC) 102 % of control | dose: 400.0 mg/kg/injection, schedule: Q01DX009 (ip), vehicle: Klucel (hydroxypropylcellulose) (HPC) 108 % of control | dose: 400.0 mg/kg/injection, schedule: Q04DX002 (ip), vehicle: Klucel (hydroxypropylcellulose) (HPC) 102 % of control

CN(Cc1cnc(N)nc1N)c1ccc(C(=O)O)cc1
inactive: [1] 90 % of control | [3] 92 % of control

CCC1C(=O)NCCNC1=O
inactive: dose: 75.0 mg/kg/injection, schedule: Q01DX001 (ip), vehicle: saline 106 % of control | dose: 150.0 mg/kg/injection, schedule: Q01DX001 (ip), vehicle: saline 93 % of control | dose: 300.0 mg/kg/injection, schedule: Q01DX001 (ip), vehicle: saline 96 % of control

NS(=O)(=O)c1cc2c(cc1Cl)NC(CSCC(F)(F)F)NS2(=O)=O (stereo unspecified)
inactive: [1] 113 % of control | [2] 108 % of control | [3] 97 % of control

COc1cc(OC)c(Cl)c(OC)c1
inactive: dose: 100.0 mg/kg/injection, schedule: Q01DX009 (ip), vehicle: other 120 % of control | [6] 101 % of control | dose: 200.0 mg/kg/injection, schedule: Q01DX009 (ip), vehicle: other 103 % of control | [7] 100 % of control | dose: 400.0 mg/kg/injection, schedule: Q01DX009 (ip), vehicle: other 108 % of control | [8] 101 % of control

O=C(O)CCC(NC(=O)c1ccccc1C(=O)O)C(=O)O (stereo unspecified)
inactive: [1] 94 % of control | [2] 94 % of control | [3] 90 % of control

CN(C)c1ccnc(Cl)n1
inactive: dose: 16.0 mg/kg/injection, schedule: Q01DX Z (ip), vehicle: methylcellulose (MC) 97 % of control | dose: 31.0 mg/kg/injection, schedule: Q01DX Z (ip), vehicle: methylcellulose (MC) 96 % of control | dose: 62.0 mg/kg/injection, schedule: Q01DX Z (ip), vehicle: methylcellulose (MC) 90 % of control | dose: 125.0 mg/kg/injection, schedule: Q01DX Z (ip), vehicle: methylcellulose (MC) 92 % of control and 100 % of control | dose: 250.0 mg/kg/injection, schedule: Q01DX Z (ip), vehicle: methylcellulose (MC) 97 % of control

Cc1ccc([N+](=O)[O-])cc1NC(=O)COc1cc(Cl)c(Cl)cc1Cl
inactive: dose: 100.0 mg/kg/injection, schedule: Q01DX009 (ip), vehicle: saline with Tween-80 89 % of control | dose: 200.0 mg/kg/injection, schedule: Q01DX009 (ip), vehicle: saline with Tween-80 94 % of control | dose: 400.0 mg/kg/injection, schedule: Q01DX009 (ip), vehicle: saline with Tween-80 98 % of control

C=CCOC(=O)N[C@H](CC(C)C)C(N)=O
inactive: dose: 100.0 mg/kg/injection, schedule: Q01DX001 (ip), vehicle: other 94 % of control | dose: 200.0 mg/kg/injection, schedule: Q01DX001 (ip), vehicle: other 110 % of control | dose: 400.0 mg/kg/injection, schedule: Q01DX001 (ip), vehicle: other 100 % of control

Clc1c(Cl)c(CBr)c(Cl)c(CBr)c1Cl
inactive: dose: 50.0 mg/kg/injection, schedule: Q01DX009 (ip), vehicle: Klucel (hydroxypropylcellulose) (HPC) 104 % of control | [9] 103 % of control | [10] 109 % of control

COc1cc2c(cc1OC)/C(=N\O)CCCC2
inactive: dose: 100.0 mg/kg/injection, schedule: Q01DX009 (ip), vehicle: saline sonified 97 % of control | [9] 96 % of control | dose: 200.0 mg/kg/injection, schedule: Q01DX009 (ip), vehicle: saline sonified 94 % of control | [10] 94 % of control | dose: 400.0 mg/kg/injection, schedule: Q01DX009 (ip), vehicle: saline sonified 100 % of control | [11] 97 % of control

COc1ccc(OC(=O)OCc2ccccc2)cc1
inactive: [9] 101 % of control | [10] 101 % of control | [11] 109 % of control

C/C(=N\NS(C)(=O)=O)C(C)(C)C
inactive: dose: 75.0 mg/kg/injection, schedule: Q01DX001 (ip), vehicle: other 103 % of control | dose: 150.0 mg/kg/injection, schedule: Q01DX001 (ip), vehicle: other 103 % of control | dose: 300.0 mg/kg/injection, schedule: Q01DX001 (ip), vehicle: other 97 % of control

COc1ccccc1NC1=C(NC(C)=O)C(=O)c2ccccc2C1=O
inactive: [4] 95 % of control | [5] 95 % of control | dose: 400.0 mg/kg/injection, schedule: Q04DX003 (ip), vehicle: saline with Tween-80 97 % of control

O=C(NCCc1c[nH]c2ccccc12)C(=O)NCCc1c[nH]c2ccccc12
inactive: [9] 108 % of control | [10] 93 % of control | [11] 93 % of control

Nc1ccc(Oc2ccc(S(=O)(=O)O)cc2)cc1
inactive: [6] 93 % of control | [7] 94 % of control | [8] 94 % of control
